Source: patent US20170313746A1, “Peptides Useful For Treating Cancer” (priority 2014, published 2017)
“Also recorded” adds a separate entry of the source. Non-standard residues stand in square brackets, D forms with d. Residues, ends and D or L forms follow the SMILES beside them. Phe(4-guanidino) = N=C(N)Nc1ccc(C[C@H](N)C(=O)O)cc1; Abu(4-SO3H) = N[C@@H](CCS(=O)(=O)O)C(=O)O

Legend:
NCI-H460 cells [1] = experiment: NCI-H460 cell viability, alamarBlue (resazurin), 96 hours; assay type: cell-based, human; conditions: FIG. 13
Experimental: 1) NCI-H460 cells were grown in Ham's F12 media supplemented with 10% FBS. 2) Cells were harvested and seeded into 96-well plates at 500 cells/well. 3) Compounds were made up from stock solutions and added directly to cells in doubling dilutions starting at 200 μM. Final DMSO concentration was 0.2%. 4) Cells were grown with compound for 96 hours at 37° C. 5% CO2 in a humidified atmosphere. 5) A resazurin dye composition (AlamarBlue® cell viability reagent (Life Technologies, Inc.)) 10% (v/v) was then added and incubated for a further 4 hours, and fluorescent product detected using the BMG FLUOstar plate reader. 6) Media only background readings were subtracted before data were analysed using a 4-parameter logistic equation in GraphPad Prism. The IC50 of HILR-30 was determined as 6 μM.
1) NCI-H460 cells were grown in Ham's F12 media supplemented with 10% FBS. 2) Cells were harvested and seeded into 96-well plates at 500 cells/well. 3) Olaparib was made up from stock solutions and added directly to cells in semi-log dilutions starting at 30 μM. Final DMSO concentration was 0.3%. […] 5) AlamarBlue® cell viability reagent (Life Technologies, Inc.) 10% (v/v) was then added and incubated for a further 4 hours, and fluorescent product detected using the BMG FLUOstar plate reader. 6) Data were analysed using a 4-parameter logistic equation in GraphPad Prism.

[2] = test system: NCI-H460 human non-small-cell lung cancer cells; experiment: Cell killing alone or in combination with 2-deoxyglucose, alamarBlue; assay type: cell-based; conditions: 3.125 mmol 2-DOG
Experimental: NCI-H460 human non-small-cell lung cancer cells were contacted with HILR-025 or HILR-D-07 alone or in combination with 3.125 mmol 2-DOG and cell survival was determined using AlamaBlue® cell viability reagent (Life Technologies, Inc.) in accordance with the manufacturer's instructions.

[3] = test system: Lactate Dehydrogenase A [LDHA]; experiment: LDH activity assay on lysates of treated NCI-H460 cells; conditions: higher concentrations, particularly later time point
Experimental: Therefore a BCA assay was conducted to estimate the total amount of protein present in each LDH assay lysate and this was used to normalise the enzyme activity data. As an indication of cell viability, an Alamar blue assay was also carried out at both timepoints, to serve as an additional point of reference.
1) NCI-H460 cells were grown in Ham's F12 media supplemented with 10% FBS. 2) Cells were harvested and seeded into 96-well plates at either 500 cells/well (for the 96 h timepoint) or 5000 cells/well for the 24 h timepoint. […] 6) At the end of the assay (24 or 96 h), Alamar blue 10% (v/v) was added to one set of plates, incubated for a further 4 hours, and fluorescent product detected using the BMG FLUOstar plate reader. […] 10) LDH activity was measured in the cleared lysates using an LDH activity kit (Abeam, ab102526). 11) After preparation of the LDH activity assay reactions, according to the manufacturer's instructions, absorbance at 450 nm was measured at the initial time to determine (A450)initial 12) Further absorbance readings were taken at 3 minute intervals for up to 15 minutes.
14) The change in measurement from Tinitial to Tfinal for each sample was calculated: 11A450=(A450)final−(A450)initial 15) The NADH standard curve was used to interpolate the 11A450 for each sample to determine the amount of NADH generated by the kinase assay between Tinitial and Tfinal (B). […]

human cancer cell lines = conditions: cited from earlier work
[4] = test system: NCI-H460 human non-small cell lung cancer cells; conditions: cited from earlier work
NCI-H460 cells [5] = experiment: HILR-001 with or without 30 nM Olaparib, alamarBlue and CellTiter-Glo time course; assay type: cell-based, human
Experimental: Four concentrations of HILR-001 were tested in the presence or absence of 30 nM Olaparib; At each time point cell viability was measured by two assay readouts, alamarBlue® and CellTiter-Glo. Conversion of alamarBlue® to a fluorescent product serves as a readout of the metabolic activity of cells, whereas CellTiter-Glo is based on quantification of the ATP present.
1) NCI-H460 cells were grown in Ham's F12 media supplemented with 10% FBS. 2) Cells were harvested and seeded into 96-well plates at 500 cells/well. 3) HILR-001 was made up from a 10 mM stock solution and added directly to cells in doubling dilutions starting at 200 μM. Olaparib was made up from a 10 mM stock solution and added directly to cells at 30 nM. The total final DMSO concentration was 0.25%. 4) Cells were grown with compound for 24, 48, 72 or 96 hours at 37° C. 5% CO2 in a humidified atmosphere. 5) AlamarBlue® 10% (v/v) was then added and incubated for a further 4 hours, and fluorescent product detected using the BMG FLUOstar plate reader. 6) On duplicate plates the media was removed from the cells, CellTiter-Glo was diluted in PBS (1:10) and 100 μl added to the cells. 7) Plates were mixed on an orbital shaker for 2 minutes and incubated for a further 10 minutes at room temperature. Luminescent signal was then measured using the BMG FLUOstar plate reader.

[6] = 30 nM Olaparib with 50 μM HILR-001

Cyc-[Gly-Asp-Glu-Val-NMeAsp-Sarc-Val-Trp-Trp-Arg-Arg-Trp-Trp-Arg-Arg-Trp-Trp] [HILR-D-01]
cell-killing of NCI-H460 cells (NCI-H460 cells [1]): weak but significant dose-related cell-killing; also recorded: mild but significant killing

cyclo-[Pro-Hca-Gly-Pro-Hca-Pro-Val-Trp-Trp-Gpa-Gpa-Trp-Trp-Gpa-Gpa-Trp-Trp] (cyclo(P[Abu(4-SO3H)]GP[Abu(4-SO3H)]PVWW[Phe(4-guanidino)][Phe(4-guanidino)]WW[Phe(4-guanidino)][Phe(4-guanidino)]WW)) [HILR-D-07]
cell killing ability with co-administration of 2-DOG [2]: enhanced

CC(C)[C@@H]1NC(=O)[C@@H]2CCCN2C(=O)[C@H](CCCNC(=N)N)NC(=O)[C@@H]2CCCN2C(=O)CNC(=O)[C@H](CCCNC(=N)N)NC(=O)[C@@H]2CCCN2C(=O)[C@H](Cc2c[nH]c3ccccc23)NC(=O)[C@H](Cc2c[nH]c3ccccc23)NC(=O)[C@H](CCCNC(=N)N)NC(=O)[C@H](CCCNC(=N)N)NC(=O)[C@H](Cc2c[nH]c3ccccc23)NC(=O)[C@H](Cc2c[nH]c3ccccc23)NC(=O)[C@H](CCCNC(=N)N)NC(=O)[C@H](CCCNC(=N)N)NC(=O)[C@H](Cc2c[nH]c3ccccc23)NC(=O)[C@H](Cc2c[nH]c3ccccc23)NC1=O [HILR-025] (HELM PEPTIDE1{P.R.G.P.R.P.V.W.W.R.R.W.W.R.R.W.W}$PEPTIDE1,PEPTIDE1,1:R1-17:R2$$$V2.0)
cell killing ability with co-administration of 2-DOG [2]: enhanced
cell death during LDH study [3]: Significant cell death

Cyc-[AAGPGGPRGPRPGGPGAA] (cyclic; cyclic peptide; (1)..(18) cyclic peptide) [SEQ ID NO: 9]
activity of PRGPRP cyclic peptides with non-amphiphilic backbone (human cancer cell lines): INACTIVE

Cyc-[AAAGGGPRGPRPGGGAAA] (cyclic; Cyclic peptide; (1)..(18) cyclic peptide) [SEQ ID NO: 6]
activity of PRGPRP cyclic peptides with non-amphiphilic backbone (human cancer cell lines): INACTIVE

CC(C)C[C@@H]1NC(=O)[C@H](C)NC(=O)[C@H](C(C)C)NC(=O)[C@@H]2CCCN2C(=O)[C@H](CCCNC(=N)N)NC(=O)[C@@H]2CCCN2C(=O)CNC(=O)[C@H](CCCNC(=N)N)NC(=O)[C@@H]2CCCN2C(=O)[C@H](CC(C)C)NC(=O)[C@H](C)NC(=O)[C@H](CC(C)C)NC(=O)[C@H](CCCCN)NC(=O)[C@H](CC(C)C)NC(=O)[C@H](C)NC(=O)[C@H](CC(C)C)NC(=O)[C@H](CCCCN)NC1=O [HILR-001] (HELM PEPTIDE1{P.R.G.P.R.P.V.A.L.K.L.A.L.K.L.A.L}$PEPTIDE1,PEPTIDE1,1:R1-17:R2$$$V2.0)
killing NCI-H460 human non-small cell lung cancer cells [4]: (“THR54”) ACTIVE

Cyc-[PRGPRPVKLALKLALKFP] (cyclic; cyclic peptide; (1)..(18) cyclic peptide) [THR53]
killing NCI-H460 human non-small cell lung cancer cells [4]: (“THR5”) ACTIVE

Cyc-[PRGPRPVKLALKLALKLAL] (cyclic; cyclic peptide; (1)..(19) cyclic peptide) [THR52]
killing NCI-H460 human non-small cell lung cancer cells [4]: (“THR52”) INACTIVE

CC(C)[C@@H]1NC(=O)[C@@H]2CCCN2C(=O)[C@H](CCCNC(=N)N)NC(=O)[C@@H]2CCCN2C(=O)CNC(=O)[C@H](CCCNC(=N)N)NC(=O)[C@@H]2CCCN2C(=O)[C@H](Cc2c[nH]c3ccccc23)NC(=O)[C@H](Cc2c[nH]c3ccccc23)NC(=O)[C@H](Cc2ccc(NC(=N)N)cc2)NC(=O)[C@H](Cc2ccc(NC(=N)N)cc2)NC(=O)[C@H](Cc2c[nH]c3ccccc23)NC(=O)[C@H](Cc2c[nH]c3ccccc23)NC(=O)[C@H](Cc2ccc(NC(=N)N)cc2)NC(=O)[C@H](Cc2ccc(NC(=N)N)cc2)NC(=O)[C@H](Cc2c[nH]c3ccccc23)NC(=O)[C@H](Cc2c[nH]c3ccccc23)NC1=O [HILR-030] (cyclo(PRGPRPVWW[Phe(4-guanidino)][Phe(4-guanidino)]WW[Phe(4-guanidino)][Phe(4-guanidino)]WW))
cell death during LDH study [3]: Significant cell death

Cyc-[GGGGGGPRGPRPGGGGGG] (cyclic; cyclic peptide; (1)..(18) cyclic peptide) [SEQ ID NO: 7]
activity of PRGPRP cyclic peptides with non-amphiphilic backbone (human cancer cell lines): INACTIVE

O=C(c1cc(Cc2n[nH]c(=O)c3ccccc23)ccc1F)N1CCN(C(=O)C2CC2)CC1 [Olaparib, 4-[3-(4-cyclopropanecarbonylpiperazine-1-carbonyl)-4-fluorobenzyl]-2H-phthalazin-1-one]
ATP levels (CellTiter-Glo) (NCI-H460 cells [5]; [6]): partially restored; also recorded: partially reverses
HILR-001-mediated cell death (alamarBlue) (NCI-H460 cells [5]; [6]): reversed
ATP levels or cancer cell death (NCI-H460 cells [5]; 30 nM Olaparib with 100 μM and 200 μM HILR-001): did not affect
